In patent publication US20090325954A1, “2-BENZIMIDAZOLYL-6-MORPHOLINO-4-PHENYLPYRIMIDINE DERIVATIVES AS PI3K AND MTOR INHIBITORS FOR THE TREATMENT OF PROLIFERATIVE DISORDERS” (priority 2006, published 2009):

What was measured:
[1] = test system: phosphorylation of Serine 473 in Akt; assay: In vitro phospho-Ser473 Akt assay in MDA-MB-468 cells, Test (c); type: cell-based; conditions: Homo sapiens, read-out: IC50, inhibition of phosphorylation of Serine 473 in Akt
Description: This assay determines the ability of test compounds to inhibit phosphorylation of Serine 473 in Akt as assessed using Acumen Explorer technology (TTP LabTech Limited, Royston, Herts, SG8 6EE, UK), a plate reader that can be used to rapidly quantitate features of images generated by laser-scanning.
A MDA-MB-468 human breast adenocarcinoma cell line (LGC Promochem, Teddington, Middlesex, UK, Catalogue No. HTB-132) was routinely maintained at 37° C. with 5% CO2 up to a confluency of 70-90% in DMEM containing 10% FCS and 1% L-glutamine.
For the assay, the cells were detached from the culture flask using ‘Accutase’ (Innovative Cell Technologies Inc., San Diego, Calif., USA; Catalogue No. AT104) using standard tissue culture methods and resuspended in media to give 5.5×10^4 cells per ml. Aliquots (90 μl) were seeded into each of the inner 60 wells of a black ‘Costar’ 96-well plate (Corning Inc., NY, USA; Catalogue No. 3904) to give a density of ˜5000 cells per well. Aliquots (90 μl) of culture media were placed in the outer wells to prevent edge effects. [An alternative cell handling procedure involved the maintenance of the cells in a ‘SelecT’ robotic device (The Automation Partnership, Royston, Herts SG8 5WY, UK). Cells were resuspended in media to give 5×10^4 cells per ml. Aliquots (100 μl) were seeded into the wells of a black ‘Costar’ 96-well plate.] […]

p110α Type Ia human PI3K = biological target: T1, p110α Type Ia human PI3K (Homo sapiens, UniProt P42336); assay: In vitro PI3K enzyme assay (AlphaScreen), Test (a); type: biochemical; conditions: read-out: IC50 versus p110α Type Ia human PI3K
T1 construct: full length DNA of each of the p110α, p110β and […] Type Ia human PI3K p110 isoforms; 6-His; made in house
Excerpt: The assay used AlphaScreen technology (Gray et al., Analytical Biochemistry, 2003, 313: 234-245) to determine the ability of test compounds to inhibit phosphorylation by recombinant Type I PI3K enzymes of the lipid PI(4,5)P2.
DNA fragments encoding human PI3K catalytic and regulatory subunits were isolated from cDNA libraries using standard molecular biology and PCR cloning techniques. The selected DNA fragments were used to generate baculovirus expression vectors. In particular, full length DNA of each of the p110α, p110β and […] Type Ia human PI3K p110 isoforms (EMBL Accession Nos. HSU79143, S67334, Y10055 for p110a, p110β and p110δ respectively) were sub-cloned into a pDEST10 vector (Invitrogen Limited, Fountain Drive, Paisley, UK). The vector is a Gateway-adapted version of Fastbac1 containing a 6-His epitope tag. […]
Biotinylated-DiC8-PI(3,4,5)P3 (50 nM; Cell Signals Inc., Catalogue No. 107), recombinant purified GST-Grp1 PH protein (2.5 nM) and AlphaScreen Anti-GST donor and acceptor beads (100 ng; Packard Bioscience Limited, Station Road, Pangbourne, Berkshire, UK, Catalogue No. 6760603M) were added and the assay plates were left for about 5 to 20 hours at room temperature in the dark. The resultant signals arising from laser light excitation at […] were read using a Packard AlphaQuest instrument. […]

T1 sequence (P42336 whole entry, canonical isoform): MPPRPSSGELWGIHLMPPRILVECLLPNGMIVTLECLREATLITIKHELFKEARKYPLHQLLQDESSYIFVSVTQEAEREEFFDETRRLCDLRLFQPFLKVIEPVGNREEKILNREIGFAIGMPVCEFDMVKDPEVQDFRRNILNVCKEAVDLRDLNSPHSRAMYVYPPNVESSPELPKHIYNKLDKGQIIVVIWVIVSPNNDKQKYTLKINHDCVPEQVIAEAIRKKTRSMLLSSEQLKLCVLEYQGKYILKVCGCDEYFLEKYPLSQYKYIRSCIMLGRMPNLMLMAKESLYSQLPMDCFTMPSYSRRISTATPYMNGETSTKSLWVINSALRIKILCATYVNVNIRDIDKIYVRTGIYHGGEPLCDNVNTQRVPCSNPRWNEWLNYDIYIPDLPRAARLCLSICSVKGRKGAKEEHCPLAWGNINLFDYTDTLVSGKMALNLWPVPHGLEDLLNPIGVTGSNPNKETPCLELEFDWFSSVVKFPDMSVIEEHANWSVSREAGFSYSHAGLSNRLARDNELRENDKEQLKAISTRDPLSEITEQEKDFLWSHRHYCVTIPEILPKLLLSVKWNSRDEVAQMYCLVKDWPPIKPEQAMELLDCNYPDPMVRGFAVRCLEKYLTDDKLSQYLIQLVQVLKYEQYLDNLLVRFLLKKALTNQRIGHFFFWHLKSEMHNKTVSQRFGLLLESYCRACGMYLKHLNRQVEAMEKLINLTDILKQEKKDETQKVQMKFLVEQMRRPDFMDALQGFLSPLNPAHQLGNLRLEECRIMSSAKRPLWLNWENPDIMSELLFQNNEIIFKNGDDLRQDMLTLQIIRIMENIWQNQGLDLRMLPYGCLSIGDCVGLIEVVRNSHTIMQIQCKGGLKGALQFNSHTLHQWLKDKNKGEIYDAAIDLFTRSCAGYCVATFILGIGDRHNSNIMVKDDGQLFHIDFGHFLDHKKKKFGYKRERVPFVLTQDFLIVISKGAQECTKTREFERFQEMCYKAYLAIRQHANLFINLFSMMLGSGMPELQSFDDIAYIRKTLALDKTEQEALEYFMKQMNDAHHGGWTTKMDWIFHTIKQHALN
T1 sequence (P27986 whole entry partner, canonical isoform): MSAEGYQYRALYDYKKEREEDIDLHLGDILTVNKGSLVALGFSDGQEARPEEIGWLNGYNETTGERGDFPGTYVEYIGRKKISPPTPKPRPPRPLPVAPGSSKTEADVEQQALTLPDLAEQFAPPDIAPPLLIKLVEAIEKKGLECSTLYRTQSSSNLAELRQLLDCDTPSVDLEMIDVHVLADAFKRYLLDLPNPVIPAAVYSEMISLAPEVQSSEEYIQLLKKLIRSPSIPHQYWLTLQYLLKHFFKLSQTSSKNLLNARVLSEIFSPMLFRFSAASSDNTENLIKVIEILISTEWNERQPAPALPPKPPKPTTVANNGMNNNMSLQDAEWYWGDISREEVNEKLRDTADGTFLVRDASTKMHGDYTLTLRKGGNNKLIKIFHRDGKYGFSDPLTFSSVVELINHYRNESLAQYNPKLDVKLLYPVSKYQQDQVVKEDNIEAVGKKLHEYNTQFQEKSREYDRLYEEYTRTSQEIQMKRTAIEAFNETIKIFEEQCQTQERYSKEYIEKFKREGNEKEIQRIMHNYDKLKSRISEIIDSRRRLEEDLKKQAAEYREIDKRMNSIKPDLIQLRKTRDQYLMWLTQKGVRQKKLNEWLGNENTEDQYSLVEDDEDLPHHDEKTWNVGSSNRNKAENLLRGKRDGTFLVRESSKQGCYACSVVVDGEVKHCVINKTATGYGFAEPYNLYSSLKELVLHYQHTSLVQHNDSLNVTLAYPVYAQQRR

| IC50 [1] [nM] | IC50 (p110α Type Ia human PI3K) [nM] | Structure (SMILES) |
| --- | --- | --- |
| ~20 | ~300 | CNCC(=O)Nc1ccc(-c2cc(N3CCOCC3)nc(-n3c(C(F)F)nc4ccccc43)n2)cc1 [Example 5, 2-(2-difluoromethylbenzimidazol-1-yl)-6-morpholino-4-(4-sarcosylaminophenyl)pyrimidine] |
| ~100 | ~300 | CN(C)CCNC(=O)c1ccc(-c2cc(N3CCOCC3)nc(-n3c(C(F)F)nc4ccccc43)n2)cc1 [Example 9, 2-(2-difluoromethylbenzimidazol-1-yl)-4-{4-[N-(2-dimethylaminoethyl)carbamoyl]phenyl}-6-morpholinopyrimidine] |
